Values joined by “and” are separate entries in the source; they are usually repeats but may differ in a detail not shown here. Equal values may be shown once. Where a SMILES comes first, the peptide text is derived from it. [ ]: non-standard residue; d: D form. Hyp = O=C(O)[C@@H]1C[C@@H](O)CN1
How the values were obtained:
CCL3/MIP-1 alpha = assay: Example 8 main study Luminex, LPS hPBMCs: CCL3/MIP-1 alpha; type: cell-based, human; details: at as low as 5 μM; LPS 5 ug/mL 24 hrs
Procedure: (§1) Human PBMCs were pretreated with YY-101, YDE-011, YDE-043 or reference compound; Xiidra® at various concentration (ranging from […] to 500 nM) for 2 h before stimulation. An equal volume of 0.5% DMSO was used as a vehicle control. Then, the cells were treated with LPS at 5 ug/ml, which was selected based on the pilot study. The supernatants from treated cells were harvested at 24 h and placed in a 96 well for Luminex cytokine & chemokine profiling using a Luminex 200 multiplex assay (Luminex; R&D system, USA).
(§2) The main study arm with triplicate wells per group in a 24-well plate: • 1. Blank • 2. PBMC: 0.5% DMSO • 3. PBMC+LPS (5 ug/ml) • 4. PBMC+YY-101 500 nM • 5. PBMC+YY-101 50 nM • 6. PBMC+YY-101 5 nM • 7. PBMC+YY-101 0.5 nM • 8. PBMC+LPS (5 ug/ml)+Xiidra® 500 nM • 9. PBMC+LPS (5 ug/ml)+Xiidra® 50 nM • 10. PBMC+LPS (5 ug/ml)+Xiidra® 5 nM • 11. PBMC+LPS (5 ug/ml)+Xiidra® 0.5 nM • 12. PBMC+LPS (5 ug/ml)+Xiidra® 0.05 nM • 13. PBMC+LPS (5 ug/ml)+Xiidra® 0.005 nM • 14. PBMC+LPS (5 ug/ml)+YY-101 500 nM • 15. PBMC+LPS (5 ug/ml)+YY-101 50 nM • 16. PBMC+LPS (5 ug/ml)+YY-101 5 nM • 17. PBMC+LPS (5 ug/ml)+YY-101 0.5 nM • 18. PBMC+LPS (5 ug/ml)+YY-101 0.05 nM • 19. PBMC+LPS (5 ug/ml)+YY-101 0.005 nM • 20. PBMC+LPS (5 ug/ml)+YDE-011 500 nM • 21. PBMC+LPS (5 ug/ml)+YDE-011 50 nM • 22. PBMC+LPS (5 ug/ml)+YDE-011 5 nM • 23. PBMC+LPS (5 ug/ml)+YDE-011 0.5 nM • 24. PBMC+LPS (5 ug/ml)+YDE-011 0.05 nM • 25. PBMC+LPS (5 ug/ml)+YDE-011 0.005 nM • 26. PBMC+LPS (5 ug/ml)+YDE-043 500 nM • 27. PBMC+LPS (5 ug/ml)+YDE-043 50 nM • 28. PBMC+LPS (5 ug/ml)+YDE-043 5 nM • 29. PBMC+LPS (5 ug/ml)+YDE-043 0.5 nM • 30. PBMC+LPS (5 ug/ml)+YDE-043 0.05 nM • 31. PBMC+LPS (5 ug/ml)+YDE-043 0.005 nM
(§3) Multiplex assay was used to measure 30 cytokines and chemokines. The 1:200 diluted cell supernatant and serial dilution of the standard were dispensed into a 96 well plate at 50 ul/well. Then, the pre-mixed cocktail of antibody-coated magnetic beads was dispensed at 50 ul/well and incubated at room temperature for 2 h in a horizontal orbital microplate shaker at 800±500 rpm. The beads were washed using a magnetic device to prevent loss. The biotin-antibody was dispensed in 50 ul of each well and incubated at room temperature for 1 h in a shaker at 800±500 rpm. After washing, streptavidin-PE was added at 50 ul/well and incubated at room temperature for 30 min in a shaker under the same conditions. Finally, after washing, wash buffer (100 ul/well) was added to the plate and incubated in a shaker for 2 min. The Luminex™ 200 setting were set according to the manufacturer's protocol. The data was calculated with a standard five-parameter logistic nonlinear regression analysis of the data (xPonent software 4.2, USA). Results were presented as concentration (ng/ml or pg/ml).

IL-1 beta/IL-1F2 = assay: Example 8 main study Luminex, LPS hPBMCs: IL-1 beta/IL-1F2; type: cell-based, human
Procedure: as §1, §2, §3

[1] = PBMC + LPS(5 ug/ml) + test article 0.005 nM, Mean
[2] = PBMC + LPS(5 ug/ml) + test article 0.005 nM, individual replicates
[3] = PBMC + LPS(5 ug/ml) + test article 0.05 nM, Mean
[4] = PBMC + LPS(5 ug/ml) + test article 0.05 nM, individual replicates
[5] = PBMC + LPS(5 ug/ml) + test article 0.5 nM, Mean
[6] = PBMC + LPS(5 ug/ml) + test article 0.5 nM, individual replicates
[7] = PBMC + LPS(5 ug/ml) + test article 5 nM, Mean
[8] = PBMC + LPS(5 ug/ml) + test article 5 nM, individual replicates
[9] = PBMC + LPS(5 ug/ml) + test article 50 nM, Mean
[10] = PBMC + LPS(5 ug/ml) + test article 50 nM, individual replicates
[11] = PBMC + LPS(5 ug/ml) + test article 500 nM, Mean
[12] = PBMC + LPS(5 ug/ml) + test article 500 nM, individual replicates
[13] = PBMC + test article 0.5 nM, no LPS, Mean
[14] = PBMC + test article 0.5 nM, no LPS, individual replicates (1st, 2nd)
[15] = PBMC + test article 5 nM, no LPS, Mean
[16] = PBMC + test article 5 nM, no LPS, individual replicates (1st, 2nd)
[17] = PBMC + test article 0.05 uM, no LPS, Mean
[18] = PBMC + test article 0.05 uM, no LPS, individual replicates (1st, 2nd)
[19] = PBMC + test article 50 nM, no LPS, Mean
[20] = PBMC + test article 50 nM, no LPS, individual replicates (1st, 2nd)
[21] = PBMC + test article 500 nM, no LPS, Mean
[22] = PBMC + test article 500 nM, no LPS, individual replicates (1st, 2nd)

SMILES: CC(C)C[C@H](NC(=O)CNC(=O)[C@H](CC(=O)O)NC(=O)[C@H](CCC(N)=O)NC(=O)CNC(=O)[C@@H]1C[C@@H](O)CN1)C(=O)N[C@@H](C)C(=O)NCC(=O)N1CCC[C@H]1C(=O)N[C@@H](CCCCN)C(=O)O [YY-101] (H-[Hyp]GQDGLAGPK-OH; N-terminus and C-terminus assumed)
- LPS-induced CCL-3 (in words) (CCL3/MIP-1 alpha): significantly reduced
- IL-1 beta/IL-1F2 Concentration (IL-1 beta/IL-1F2; [1]): 5806.3 pg/mL
- IL-1 beta/IL-1F2 MFI (IL-1 beta/IL-1F2; [1]): 105.2
- IL-1 beta/IL-1F2 Concentration (IL-1 beta/IL-1F2; [2]): 5975.0 pg/mL and 6004.7 pg/mL and 5439.3 pg/mL
- IL-1 beta/IL-1F2 MFI (IL-1 beta/IL-1F2; [2]): 108.0 and 108.5 and 99.0
- IL-1 beta/IL-1F2 Concentration (IL-1 beta/IL-1F2; [3]): 6004.8 pg/mL
- IL-1 beta/IL-1F2 MFI (IL-1 beta/IL-1F2; [3]): 108.5
- IL-1 beta/IL-1F2 Concentration (IL-1 beta/IL-1F2; [4]): 5736.8 pg/mL and 6511.1 pg/mL and 5766.6 pg/mL
- IL-1 beta/IL-1F2 MFI (IL-1 beta/IL-1F2; [4]): 104.0 and 117.0 and 104.5
- IL-1 beta/IL-1F2 Concentration (IL-1 beta/IL-1F2; [5]): 6044.5 pg/mL
- IL-1 beta/IL-1F2 MFI (IL-1 beta/IL-1F2; [5]): 109.2
- IL-1 beta/IL-1F2 Concentration (IL-1 beta/IL-1F2; [6]): 5736.8 pg/mL and 5975.0 pg/mL and 6421.7 pg/mL
- IL-1 beta/IL-1F2 MFI (IL-1 beta/IL-1F2; [6]): 104.0 and 108.0 and 115.5
- IL-1 beta/IL-1F2 Concentration (IL-1 beta/IL-1F2; [7]): 5875.9 pg/mL
- IL-1 beta/IL-1F2 MFI (IL-1 beta/IL-1F2; [7]): 106.3
- IL-1 beta/IL-1F2 Concentration (IL-1 beta/IL-1F2; [8]): 5498.8 pg/mL and 5558.3 pg/mL and 6570.7 pg/mL
- IL-1 beta/IL-1F2 MFI (IL-1 beta/IL-1F2; [8]): 100.0 and 101.0 and 118.0
- IL-1 beta/IL-1F2 Concentration (IL-1 beta/IL-1F2; [9]): 5608.2 pg/mL
- IL-1 beta/IL-1F2 MFI (IL-1 beta/IL-1F2; [9]): 101.8
- IL-1 beta/IL-1F2 Concentration (IL-1 beta/IL-1F2; [10]): 5201.4 pg/ml (2×) and 6421.7 pg/ml
- IL-1 beta/IL-1F2 MFI (IL-1 beta/IL-1F2; [10]): 95.0 (2×) and 115.5
- IL-1 beta/IL-1F2 Concentration (IL-1 beta/IL-1F2; [11]): 5578.2 pg/mL
- IL-1 beta/IL-1F2 MFI (IL-1 beta/IL-1F2; [11]): 101.3
- IL-1 beta/IL-1F2 Concentration (IL-1 beta/IL-1F2; [12]): 5260.9 pg/mL and 5915.4 pg/mL and 5558.3 pg/mL
- IL-1 beta/IL-1F2 MFI (IL-1 beta/IL-1F2; [12]): 96.0 and 107.0 and 101.0
- IL-1 beta/IL-1F2 Concentration (IL-1 beta/IL-1F2; [13]): 391.1 pg/mL
- IL-1 beta/IL-1F2 MFI (IL-1 beta/IL-1F2; [13]): 13.5
- IL-1 beta/IL-1F2 Concentration (IL-1 beta/IL-1F2; [14]): 362.0 pg/mL and 420.1 pg/mL
- IL-1 beta/IL-1F2 MFI (IL-1 beta/IL-1F2; [14]): 13.0 and 14.0
- IL-1 beta/IL-1F2 Concentration (IL-1 beta/IL-1F2; [15]): 391.1 pg/mL
- IL-1 beta/IL-1F2 MFI (IL-1 beta/IL-1F2; [15]): 13.5
- IL-1 beta/IL-1F2 Concentration (IL-1 beta/IL-1F2; [16]): 362.0 pg/mL and 420.1 pg/mL
- IL-1 beta/IL-1F2 MFI (IL-1 beta/IL-1F2; [16]): 13.0 and 14.0
- IL-1 beta/IL-1F2 Concentration (IL-1 beta/IL-1F2; [17]): 420.1 pg/mL
- IL-1 beta/IL-1F2 MFI (IL-1 beta/IL-1F2; [17]): 14.0
- IL-1 beta/IL-1F2 Concentration (IL-1 beta/IL-1F2; [18]): 420.1 pg/mL
- IL-1 beta/IL-1F2 MFI (IL-1 beta/IL-1F2; [18]): 14.0
- IL-1 beta/IL-1F2 Concentration (IL-1 beta/IL-1F2; [19]): 362.0 pg/mL
- IL-1 beta/IL-1F2 MFI (IL-1 beta/IL-1F2; [19]): 13.0
- IL-1 beta/IL-1F2 Concentration (IL-1 beta/IL-1F2; [20]): 362.0 pg/mL
- IL-1 beta/IL-1F2 MFI (IL-1 beta/IL-1F2; [20]): 13.0
- IL-1 beta/IL-1F2 Concentration (IL-1 beta/IL-1F2; [21]): 420.1 pg/mL
- IL-1 beta/IL-1F2 MFI (IL-1 beta/IL-1F2; [21]): 14.0
- IL-1 beta/IL-1F2 Concentration (IL-1 beta/IL-1F2; [22]): 420.1 pg/mL
- IL-1 beta/IL-1F2 MFI (IL-1 beta/IL-1F2; [22]): 14.0

Reference: patent publication US20230146455A1, “TREATMENT OF INFLAMMATORY DISEASES WITH PEPTIDES AND PHARMACEUTICAL COMPOSITIONS” (Yuyu Pharma, Inc., priority 2020, published 2023)
